# Data: BindingDB's records for doi:10.1016/S0960-894X(96)00606-3 (1997)
# Biological target: T1, C5a anaphylatoxin chemotactic receptor 1 (Homo sapiens, UniProt P21730)
# T1 sequence (P21730 whole entry): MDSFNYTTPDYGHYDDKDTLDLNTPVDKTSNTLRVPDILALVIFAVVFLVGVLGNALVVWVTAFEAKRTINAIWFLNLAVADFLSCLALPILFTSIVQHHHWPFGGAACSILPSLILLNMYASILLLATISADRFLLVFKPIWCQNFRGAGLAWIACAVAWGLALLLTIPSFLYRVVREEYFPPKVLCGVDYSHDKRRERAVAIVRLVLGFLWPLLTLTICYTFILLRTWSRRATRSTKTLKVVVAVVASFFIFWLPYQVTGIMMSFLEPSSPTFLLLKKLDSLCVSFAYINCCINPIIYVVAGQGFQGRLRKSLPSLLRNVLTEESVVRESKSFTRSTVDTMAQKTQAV
# Experiment: ChEBML_41457
# Source text: Tested for its ability to compete with [125I]C5a for binding to C5a anaphylatoxin chemotactic receptor of human neutrophil membrane preparations
row,SMILES,IC50 [µM]
1,"NCCCCc1[nH]c(=O)n([C@H](CC2CCCCC2)C(=O)N2CCC3(CCc4ccccc43)CC2)c1O [5-(4-aminobutyl)-3-[1-cyclohexylmethyl-2-oxo-2-spiro[2,3-dihydro-1H-indene-1,4'-(hexahydropyridine)]-1-yl-(1R)-ethyl]-(5R)-tetrahydro-1H-2,4-imidazoledione]",4
2,"N=C(N)NCCCc1[nH]c(=O)n([C@H](Cc2ccc(O)cc2)C(=O)N2CCC3(CCc4ccccc43)CC2)c1O [5-[3-amino(imino)methylaminopropyl]-3-[1-(4-hydroxybenzyl)-2-oxo-2-spiro[2,3-dihydro-1H-indene-1,4'-(hexahydropyridine)]-1-yl-(1R)-ethyl]-(5R)-tetrahydro-1H-2,4-imidazoledione]",4
3,"CCC[C@H](C(=O)N1CCC2(CCc3ccccc32)CC1)n1c(O)c(CCCNC(=N)N)[nH]c1=O [5-[3-amino(imino)methylaminopropyl]-3-[1-spiro[2,3-dihydro-1H-indene-1,4'-(hexahydropyridine)]-1-ylcarbonyl-(1R)-butyl]-(5R)-tetrahydro-1H-2,4-imidazoledione]",3
4,"N=C(N)NCCCc1[nH]c(=O)n(C(CCc2ccccc2)C(=O)N2CCC3(CCc4ccccc43)CC2)c1O [5-[3-amino(imino)methylaminopropyl]-3-[3-phenyl-1-spiro[2,3-dihydro-1H-indene-1,4'-(hexahydropyridine)]-1-ylcarbonylpropyl]-(5R)-tetrahydro-1H-2,4-imidazoledione]",3
